Assay results reported in ChEMBL document CHEMBL1122566, “Resorcinol congeners of dopamine derived from benzocycloheptene and indan” (1984).

Legend:
Felis catus [1] = experiment: Effect on rise in arterial pressure in anesthetized cats at intravenous dose of 300 ug/kg; assay type: functional, Artery
Felis catus [2] = experiment: Effect on increase in heart rate in anesthetized cats at intravenous dose of 30 ug/kg; assay type: functional
Felis catus [3] = experiment: Effect on increase in heart rate in anesthetized cats at intravenous dose of 300 ug/kg; assay type: functional
Felis catus [4] = experiment: Effect on increase in heart rate in anesthetized cats at intravenous dose of 100 ug/kg; assay type: functional
Felis catus [5] = experiment: Effect on rise in arterial pressure in anesthetized cats at intravenous dose of 30 ug/kg; assay type: functional, Artery
Felis catus [6] = experiment: Effect on rise in arterial pressure in anesthetized cats at intravenous dose of 100 ug/kg; assay type: functional, Artery
Felis catus [7] = experiment: Effect on rise in arterial pressure in anesthetized cats at intravenous dose of 1000 ug/kg; assay type: functional, Artery

| Compound | Arterial pressure (Felis catus [1]) [mmHg] | Heart rate (Felis catus [2]) [beats min-1] | Heart rate (Felis catus [3]) [beats min-1] | Heart rate (Felis catus [4]) [beats min-1] | Arterial pressure (Felis catus [5]) [mmHg] | Arterial pressure (Felis catus [6]) [mmHg] | Arterial pressure (Felis catus [7]) [mmHg] |
| --- | --- | --- | --- | --- | --- | --- | --- |
| NC1CCCc2c(O)cc(O)cc2C1 (centres undefined) | 78.7 | 4.3 | 42 | 11.7 | 25.3 | 40 | – |
| CCCN(CCC)C1Cc2cc(O)cc(O)c2C1 (centres undefined) | – | – | 21.7 | 0 | – | 10 | 22.8 |
| NC1Cc2cc(O)cc(O)c2C1 (centres undefined) | – | – | 7.3 | 0 | – | 13.3 | 70.3 |
